# Measurements from publication PMC12250965, “Design and Synthesis of Sulfonium and Selenonium Derivatives Bearing 3′,5′-O-Benzylidene Acetal Side Chain Structure as Potent α-Glucosidase Inhibitors” (Molecules, 2025).
# Like-named read-outs stand apart in the source and are kept apart here.
# Tests used:
# rat intestinal maltase = assay: In vitro α-glucosidase inhibition assay, rat intestinal maltase; type: biochemical; details: rat small intestinal brush border membrane vesicles; maltose substrate; mean ± SD (n = 3); read-out: IC50 against maltase
# Protocol: (§1) The testing method previously described was modified and used. Thus, rat small intestinal brush border membrane vesicles were first prepared, and its suspension in 0.1 M maleate buffer (pH = 6.0) was used as small intestinal α-glucosidases of maltase and sucrase. A test compound was dissolved in dimethylsulfoxide (DMSO), and the resulting solution was diluted with 0.1 M maleate buffer to prepare the test compound solution (concentration of DMSO: 10%). The substrate solution in maleate buffer ([…], 50 μL), a test compound solution (25 μL), and the enzyme solution (25 μL) were mixed and incubated at 37 °C for 30 min. After incubation, the solution was immediately heated by boiling water for 2 min to stop the reaction, and the solution was mixed with water (150 μL). Glucose concentration was determined by the glucose-oxidase method. […] The IC50 value was determined graphically by a plot of percent inhibition versus log of the test compound.
# rat intestinal sucrase = molecular target: T1, rat intestinal sucrase (Rattus norvegicus, UniProt P23739); assay: In vitro α-glucosidase inhibition assay, rat intestinal sucrase; type: biochemical
# T1 construct: rat small intestinal brush border membrane vesicles were first prepared; from tissue; host or cells: rat small intestine, brush border membrane vesicles
# T1 sequence (P23739 whole entry): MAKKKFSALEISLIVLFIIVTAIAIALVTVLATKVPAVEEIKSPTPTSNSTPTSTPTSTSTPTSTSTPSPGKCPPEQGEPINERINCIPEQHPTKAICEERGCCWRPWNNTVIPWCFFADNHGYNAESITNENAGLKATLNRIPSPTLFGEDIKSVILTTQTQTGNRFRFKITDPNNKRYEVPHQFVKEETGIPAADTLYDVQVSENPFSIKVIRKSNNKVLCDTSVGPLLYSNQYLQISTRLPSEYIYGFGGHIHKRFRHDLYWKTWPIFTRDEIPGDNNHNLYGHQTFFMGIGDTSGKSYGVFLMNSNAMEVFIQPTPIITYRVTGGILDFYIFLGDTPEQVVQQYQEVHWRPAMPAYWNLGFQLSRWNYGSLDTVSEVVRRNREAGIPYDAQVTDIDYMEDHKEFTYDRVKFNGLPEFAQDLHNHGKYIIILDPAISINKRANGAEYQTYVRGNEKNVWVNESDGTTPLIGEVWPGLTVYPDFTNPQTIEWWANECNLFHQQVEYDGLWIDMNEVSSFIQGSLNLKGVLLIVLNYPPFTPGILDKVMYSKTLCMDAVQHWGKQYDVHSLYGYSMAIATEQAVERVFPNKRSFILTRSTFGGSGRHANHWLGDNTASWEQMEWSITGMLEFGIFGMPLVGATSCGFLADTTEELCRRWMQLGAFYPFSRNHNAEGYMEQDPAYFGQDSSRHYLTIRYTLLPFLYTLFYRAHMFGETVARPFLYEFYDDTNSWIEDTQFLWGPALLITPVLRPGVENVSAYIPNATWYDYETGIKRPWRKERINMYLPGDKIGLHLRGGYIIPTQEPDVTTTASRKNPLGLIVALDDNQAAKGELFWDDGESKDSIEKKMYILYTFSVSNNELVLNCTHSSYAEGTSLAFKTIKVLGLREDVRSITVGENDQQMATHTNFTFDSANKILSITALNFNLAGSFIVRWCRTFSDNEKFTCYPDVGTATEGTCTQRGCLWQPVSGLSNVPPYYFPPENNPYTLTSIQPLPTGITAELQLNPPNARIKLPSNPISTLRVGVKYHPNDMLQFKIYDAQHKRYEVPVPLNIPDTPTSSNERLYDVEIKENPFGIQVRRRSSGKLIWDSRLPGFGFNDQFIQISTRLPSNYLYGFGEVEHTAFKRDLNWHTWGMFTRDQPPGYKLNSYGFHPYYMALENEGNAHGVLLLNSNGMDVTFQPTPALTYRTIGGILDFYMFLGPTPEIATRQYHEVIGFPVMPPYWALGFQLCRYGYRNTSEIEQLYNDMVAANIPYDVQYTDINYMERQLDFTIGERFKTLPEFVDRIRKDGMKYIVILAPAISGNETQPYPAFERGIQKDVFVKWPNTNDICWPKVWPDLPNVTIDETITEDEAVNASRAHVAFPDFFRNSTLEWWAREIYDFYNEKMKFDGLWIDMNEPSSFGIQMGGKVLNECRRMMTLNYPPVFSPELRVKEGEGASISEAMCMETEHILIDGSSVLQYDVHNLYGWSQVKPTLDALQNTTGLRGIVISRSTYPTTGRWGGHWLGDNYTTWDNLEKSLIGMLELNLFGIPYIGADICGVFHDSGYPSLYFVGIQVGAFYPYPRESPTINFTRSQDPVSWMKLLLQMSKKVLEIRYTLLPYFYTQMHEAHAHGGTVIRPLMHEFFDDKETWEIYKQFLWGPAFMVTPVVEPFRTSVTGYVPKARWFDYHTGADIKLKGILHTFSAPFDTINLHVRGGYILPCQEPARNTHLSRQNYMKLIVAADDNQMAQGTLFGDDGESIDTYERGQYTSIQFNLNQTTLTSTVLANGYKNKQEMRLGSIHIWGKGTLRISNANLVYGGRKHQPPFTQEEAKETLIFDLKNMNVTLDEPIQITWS
# Protocol: as §1
# [1] = rat small intestinal brush border membrane vesicles, sucrose substrate, mean ± SD (n = 3), read-out: IC50 against sucrase
structure (smiles),measurement,setting,value
"OCC1C(O)C(O)C[S+]1CC(O)C1OC(c2ccc(Br)cc2)OCC1O [19m, 1,4-Dideoxy-1,4-[(R)-(5-deoxy-1,3-O-(p-bromobenzylidene)-D-arabinitol-5-yl)episulfoniumylidene]-D-arabinitol chloride]",IC50,rat intestinal maltase,4100 ± 80 nM
same,IC50,rat intestinal sucrase; [1],3500 ± 60 nM
"OCC1C(O)C(O)C[S+]1CC(O)C1OC(c2ccccc2I)OCC1O [19o, 1,4-Dideoxy-1,4-[(R)-(5-deoxy-1,3-O-(o-iodobenzylidene)-D-arabinitol-5-yl)episulfoniumylidene]-D-arabinitol chloride]",IC50,rat intestinal maltase,3100 ± 660 nM
same,IC50,rat intestinal sucrase; [1],3300 ± 280 nM
"N#Cc1ccccc1C1OCC(O)C(C(O)C[S+]2CC(O)C(O)C2CO)O1 [19p, 1,4-Dideoxy-1,4-[(R)-(5-deoxy-1,3-O-(o-cyanobenzyliden)-D-arabinitol-5-yl)episulfoniumylidene]-D-arabinitol chloride]",IC50,rat intestinal maltase,880 ± 40 nM
same,IC50,rat intestinal sucrase; [1],900 ± 50 nM
"OCC1C(O)C(O)C[S+]1CC(O)C1OC(c2cccc3ccccc23)OCC1O [19q, 1,4-Dideoxy-1,4-[(R)-(5-deoxy-1,3-O-(1-naphthalene)-D-arabinitol-5-yl)episulfoniumylidene]-D-arabinitol chloride]",IC50,rat intestinal maltase,4600 ± 370 nM
same,IC50,rat intestinal sucrase; [1],5800 ± 410 nM
"OCC1C(O)C(O)C[S+]1CC(O)C1OC(c2ccccc2-c2ccccc2)OCC1O [19r, 1,4-Dideoxy-1,4-[(R)-(5-deoxy-1,3-O-(2-phenylbenzylidene)-D-arabinitol-5-yl)episulfoniumylidene]-D-arabinitol chloride]",IC50,rat intestinal maltase,10500 ± 1100 nM
same,IC50,rat intestinal sucrase; [1],3300 ± 220 nM
"OC[C@@H]1[C@@H](O)[C@H](O)C[Se@+]1C[C@@H](O)[C@H]1OC(c2ccc(Cl)cc2Cl)OC[C@H]1O (stereo partly drawn) [20b, (1S,2R,3S,4S)-1-((2S)-2-((4S,5R)-2-(2,4-Dichlorophenyl)-5-hydroxy-1,3-dioxan-4-yl)-2-hydroxyethyl)-3,4-dihydroxy-2-(hydroxymethyl)tetrahydro-1H-selenophen-1-ium chloride]",IC50,rat intestinal maltase,260 ± 80 nM
same,IC50,rat intestinal sucrase,220 ± 60 nM
"OC[C@@H]1[C@@H](O)[C@H](O)C[Se@+]1C[C@@H](O)[C@H]1OC(c2cccc(F)c2Cl)OC[C@H]1O (stereo partly drawn) [20d, (1S,2R,3S,4S)-1-((2S)-2-((4S,5R)-2-(2-Chloro-3-fluorophenyl)-5-hydroxy-1,3-dioxan-4-yl)-2-hydroxyethyl)-3,4-dihydroxy-2-(hydroxymethyl)tetrahydro-1H-selenophen-1-ium chloride]",IC50,rat intestinal maltase,620 ± 70 nM
same,IC50,rat intestinal sucrase,870 ± 230 nM
"OC[C@@H]1[C@@H](O)[C@H](O)C[Se@+]1C[C@@H](O)[C@H]1OC(c2cc(F)ccc2Cl)OC[C@H]1O (stereo partly drawn) [20e, (1S,2R,3S,4S)-1-((2S)-2-((4S,5R)-2-(2-Chloro-5-fluorophenyl)-5-hydroxy-1,3-dioxan-4-yl)-2-hydroxyethyl)-3,4-dihydroxy-2-(hydroxymethyl)tetrahydro-1H-selenophen-1-ium chloride]",IC50,rat intestinal maltase,450 ± 80 nM
same,IC50,rat intestinal sucrase,410 ± 110 nM
"OC[C@@H]1[C@@H](O)[C@H](O)C[Se@+]1C[C@@H](O)[C@H]1OC(c2ccc(Cl)c(Cl)c2)OC[C@H]1O (stereo partly drawn) [20f, (1S,2R,3S,4S)-1-((2S)-2-((4S,5R)-2-(3,4-Dichlorophenyl)-5-hydroxy-1,3-dioxan-4-yl)-2-hydroxyethyl)-3,4-dihydroxy-2-(hydroxymethyl)tetrahydro-1H-selenophen-1-ium chloride]",IC50,rat intestinal maltase,470 ± 110 nM
same,IC50,rat intestinal sucrase,330 ± 40 nM
"OC[C@@H]1[C@@H](O)[C@H](O)C[Se@+]1C[C@@H](O)[C@H]1OC(c2cc(Cl)cc(Cl)c2)OC[C@H]1O (stereo partly drawn) [20g, (1S,2R,3S,4S)-1-((2S)-2-((4S,5R)-2-(3,5-Dichlorophenyl)-5-hydroxy-1,3–dioxan-4-yl)-2-hydroxyethyl)-3,4-dihydroxy-2-(hydroxymethyl)tetrahydro-1H-selenophen-1-ium Chloride]",IC50,rat intestinal maltase,710 ± 210 nM
same,IC50,rat intestinal sucrase,220 ± 50 nM
"OC[C@@H]1[C@@H](O)[C@H](O)C[Se@+]1C[C@@H](O)[C@H]1OC(c2cc(F)cc(Cl)c2)OC[C@H]1O (stereo partly drawn) [20h, (1S,2R,3S,4S)-1-((2S)-2-((4S,5R)-2-(3-Chloro-5-fluorophenyl)-5-hydroxy-1,3-dioxan-4-yl)-2-hydroxyethyl)-3,4-dihydroxy-2-(hydroxymethyl)tetrahydro-1H-selenophen-1-ium chloride]",IC50,rat intestinal maltase,3670 ± 890 nM
same,IC50,rat intestinal sucrase,1960 ± 250 nM
"OC[C@@H]1[C@@H](O)[C@H](O)C[Se@+]1C[C@@H](O)[C@H]1OC(c2cc(C(F)(F)F)cc(C(F)(F)F)c2)OC[C@H]1O (stereo partly drawn) [20i, (1S,2R,3S,4S)-1-((2S)-2-((4S,5R)-2-(3,5-Bis(trifluoromethyl)phenyl)-5-hydroxy-1,3-dioxan-4-yl)-2-hydroxyethyl)-3,4-dihydroxy-2-(hydroxymethyl)tetrahydro-1H-selenophen-1-ium chloride]",IC50,rat intestinal maltase,1010 ± 320 nM
same,IC50,rat intestinal sucrase,410 ± 110 nM
"O=[N+]([O-])c1ccc(F)cc1C1OC[C@@H](O)[C@@H]([C@H](O)C[Se@@+]2C[C@@H](O)[C@H](O)[C@H]2CO)O1 (stereo partly drawn) [20j, (1S,2R,3S,4S)-1-((2S)-2-((4S,5R)-2-(5-Fluoro-2-nitrophenyl)-5-hydroxy-1,3-dioxan-4-yl)-2-hydroxyethyl)-3,4-dihydroxy-2-(hydroxymethyl)tetrahydro-1H-selenophen-1-ium chloride]",IC50,rat intestinal maltase,330 ± 80 nM
same,IC50,rat intestinal sucrase,90 ± 30 nM
"OC[C@@H]1[C@@H](O)[C@H](O)C[Se@+]1C[C@@H](O)[C@H]1OC(c2ccccc2Br)OC[C@H]1O (stereo partly drawn) [20k, (1S,2R,3S,4S)-1-((2S)-2-((4S,5R)-2-(2-Bromophenyl)-5-hydroxy-1,3-dioxan-4-yl)-2-hydroxyethyl)-3,4-dihydroxy-2-(hydroxymethyl)tetrahydro-1H-selenophen-1-ium chloride]",IC50,rat intestinal maltase,530 ± 220 nM
same,IC50,rat intestinal sucrase,120 ± 50 nM
"OC[C@@H]1[C@@H](O)[C@H](O)C[Se@+]1C[C@@H](O)[C@H]1OC(c2cccc(Br)c2)OC[C@H]1O (stereo partly drawn) [20l, (1S,2R,3S,4S)-1-((2S)-2-((4S,5R)-2-(3-Bromophenyl)-5-hydroxy-1,3-dioxan-4-yl)-2-hydroxyethyl)-3,4-dihydroxy-2-(hydroxymethyl)tetrahydro-1H-selenophen-1-ium chloride]",IC50,rat intestinal maltase,690 ± 50 nM
same,IC50,rat intestinal sucrase,210 ± 20 nM
"OC[C@@H]1[C@@H](O)[C@H](O)C[Se@+]1C[C@@H](O)[C@H]1OC(c2ccc(Br)cc2)OC[C@H]1O (stereo partly drawn) [20m, (1S,2R,3S,4S)-1-((2S)-2-((4S,5R)-2-(4-Bromophenyl)-5-hydroxy-1,3-dioxan-4-yl)-2-hydroxyethyl)-3,4-dihydroxy-2-(hydroxymethyl)tetrahydro-1H-selenophen-1-ium chloride]",IC50,rat intestinal maltase,70 ± 30 nM
same,IC50,rat intestinal sucrase,200 ± 50 nM
"OC[C@@H]1[C@@H](O)[C@H](O)C[Se@+]1C[C@@H](O)[C@H]1OC(c2ccccc2F)OC[C@H]1O (stereo partly drawn) [20n, (1S,2R,3S,4S)-1-((2S)-2-((4S,5R)-2-(2-Fluorophenyl)-5-hydroxy-1,3-dioxan-4-yl)-2-hydroxyethyl)-3,4-dihydroxy-2-(hydroxymethyl)tetrahydro-1H-selenophen-1-ium chloride]",IC50,rat intestinal maltase,3750 ± 580 nM
same,IC50,rat intestinal sucrase,200 ± 60 nM
"OC[C@@H]1[C@@H](O)[C@H](O)C[Se@@+]1C[C@@H](O)[C@H]1OC(c2ccccc2I)OC[C@H]1O (stereo partly drawn) [20o, (1S,2R,3S,4S)-3,4-Dihydroxy-1-((2S)-2-hydroxy-2-((4S,5R)-5-hydroxy-2-(2-iodophenyl)-1,3-dioxan-4-yl)ethyl)-2-(hydroxymethyl)tetrahydro-1H-selenophen-1-ium chloride]",IC50,rat intestinal maltase,360 ± 70 nM
same,IC50,rat intestinal sucrase,300 ± 110 nM
"N#Cc1ccccc1C1OC[C@@H](O)[C@@H]([C@H](O)C[Se@@+]2C[C@@H](O)[C@H](O)[C@H]2CO)O1 (stereo partly drawn) [20p, (1S,2R,3S,4S)-1-((2S)-2-((4S,5R)-2-(2-Cyanophenyl)-5-hydroxy-1,3-dioxan-4-yl)-2-hydroxyethyl)-3,4-dihydroxy-2-(hydroxymethyl)tetrahydro-1H-selenophen-1-ium chloride]",IC50,rat intestinal maltase,820 ± 210 nM
same,IC50,rat intestinal sucrase,370 ± 50 nM
"OC[C@@H]1[C@@H](O)[C@H](O)C[Se@@+]1C[C@@H](O)[C@H]1OC(c2cccc3ccccc23)OC[C@H]1O (stereo partly drawn) [20q, (1S,2R,3S,4S)-3,4-dihydroxy-1-((2S)-2-hydroxy-2-((4S,5R)-5-hydroxy-2-(naphthalen-1-yl)-1,3-dioxan-4-yl)ethyl)-2-(hydroxymethyl)tetrahydro-1H-selenophen-1-ium chloride]",IC50,rat intestinal maltase,920 ± 230 nM
same,IC50,rat intestinal sucrase,680 ± 140 nM
"OC[C@@H]1[C@@H](O)[C@H](O)C[Se@+]1C[C@@H](O)[C@H]1OC(c2ccccc2-c2ccccc2)OC[C@H]1O (stereo partly drawn) [20r, (1S,2R,3S,4S)-1-((2S)-2-((4S,5R)-2-([1,1′-biphenyl]-2-yl)-5-hydroxy-1,3-dioxan-4-yl)-2-hydroxyethyl)-3,4-dihydroxy-2-(hydroxymethyl)tetrahydro-1H-selenophen-1-ium chloride]",IC50,rat intestinal maltase,2000 ± 520 nM
same,IC50,rat intestinal sucrase,720 ± 170 nM
